Several values for one entry are separate records, joined by “and”; a condition that tells them apart may be missing. Equal entries are not always repeated. Where two headings read alike, the source gives them in different places.
Key:
SpChiD mutant E153A = experiment: DSC ligand-induced thermal stability of E153A with CHOS DP2–6; type: binding, Serratia proteamaculans; conditions: for Tm Transition-I / Tm Transition-II: DSC, pH 8.0; for Tm Transition-I: E153A 0.5 mg/mL alone or pre-incubated 1 h with 1 mM ligand; for Tm Transition-II: E153A alone or pre-incubated 1 h with 1 mM ligand; for increment of Tm1 over E153A alone / increment of Tm2 over E153A alone: [Tm of E153A + (DP)n] − Tm of E153A alone; for increment of Tm1 over E153A alone: first transition; for increment of Tm2 over E153A alone: second transition
Experimental: DSC measurements were carried out on a MicroCal VP-DSC (MicroCal LLC, Northampton, MA, USA). SpChiD and mutant E153A were dialyzed against 20 mM potassium phosphate buffer, pH 8.0. The dialysate was used as the reference. Protein samples (0.5 mg/mL) were heated from 10–70 °C at a scan rate of 30°/h to assess the effect of ligand binding on thermal unfolding. Mutant E153A was pre-incubated for 1 h with 1 mM of each ligand (DP2–6) before scanning. Sample and reference solutions were degassed prior to scanning to eliminate bubbling effects. Baseline reproducibility was verified by multiple scans, and the reversibility of protein unfolding was monitored by scanning the sample twice. Buffer scans were subtracted from thermograms obtained in the presence or absence of CHOS before further analysis. Absolute and excess heat capacities were analyzed using a non-two-state fit of the thermogram in Origin v7.0.

SpChiD-E153A [1] = biological target: SpChiD-E153A (Serratia proteamaculans, UniProt A8GFD6, E159A); experiment: ITC binding of CHOS to E153A; conditions: ITC
Experimental: (§1) Calorimetric titrations were carried out at 13 °C with DP2–4 CHOS, and at 25 °C with DP5 and DP6 CHOS, using a MicroCal ITC200 System (Microcal, Northampton, MA, USA). Mutant E153A was extensively dialyzed against 20 mM potassium phosphate (pH 8.0) and the dialysate was used to make CHOS solutions to minimize the heat of dilution during titration. Protein solutions were passed through 0.2-μm filters and thoroughly degassed prior to use. […] Successive injections at 225-s intervals ensured that equilibrium was achieved before adding the next aliquot. The sample in the calorimeter cell was stirred at 260 rpm during titration. Blank titrations were also performed by injecting ligand alone into the buffer solution, which yielded insignificant heat of dilution values. The binding isotherms were analyzed using MicroCal Origin v7.0. Thermodynamic parameters such as binding stoichiometry (n), change in enthalpy (ΔH) and association constant (Ka) were obtained by nonlinear least-squares fitting of experimental data using the one-set-of-sites binding model. Free energy of binding (ΔG) and change in entropy (ΔS) were deduced from the Ka and ΔH values using the standard thermodynamic equation

SpChiD-E153A [2] = experiment: ITC binding of CHOS to E153A; design: species or system Serratia proteamaculans; conditions: for binding affinity to E153A relative to the same ligand on SmChiB: times higher than SmChiB
Experimental: as §1

BcChiA-E61A = experiment: Literature Kd values from isothermal titration calorimetry, quoted for comparison; conditions not given in this article.; type: binding; conditions: read-out: Kd values in μM (SmChiB-E144Q, OfChtI-E148Q, BcChiA-E61A); cited from earlier work
Source text: (§2) So far three chitinases, two belonging to family GH18 (ChiB from S. marcescens−SmChiB and a chitinase from the insect Ostrinia furnacalis−OfChtI) and one belonging to family GH19 (ChiA from moss species, Bryum coronatum−BcChiA) were studied in great detail for their binding properties using ITC[27][28][29]. […] The high binding affinities of the mutant E153A even for the lower chain CHOS like DP2 and DP3, indicates the probability of these CHOS getting transglycosylated at the substrate-binding cleft. […] Therefore, the exceptionally high binding affinities of the mutant E153A for CHOS with DP2−6 compared to any other GH18 or GH19 chitinases[27][28][29] (Table 3) might be crucial to facilitate the unprecedented hyper-TG activity by SpChiD.

SmChiB-E144Q = experiment: as above; type: binding; conditions: read-out: Kd values in μM (SmChiB-E144Q, OfChtI-E148Q, BcChiA-E61A); cited from earlier work
Source text: as §2

OfChtI-E148Q = conditions: catalytically-inactive mutant, cited from earlier work

Sequence of SpChiD-E153A (Serratia proteamaculans, UniProt A8GFD6, E159A) (A8GFD6 entry or part of it E159A): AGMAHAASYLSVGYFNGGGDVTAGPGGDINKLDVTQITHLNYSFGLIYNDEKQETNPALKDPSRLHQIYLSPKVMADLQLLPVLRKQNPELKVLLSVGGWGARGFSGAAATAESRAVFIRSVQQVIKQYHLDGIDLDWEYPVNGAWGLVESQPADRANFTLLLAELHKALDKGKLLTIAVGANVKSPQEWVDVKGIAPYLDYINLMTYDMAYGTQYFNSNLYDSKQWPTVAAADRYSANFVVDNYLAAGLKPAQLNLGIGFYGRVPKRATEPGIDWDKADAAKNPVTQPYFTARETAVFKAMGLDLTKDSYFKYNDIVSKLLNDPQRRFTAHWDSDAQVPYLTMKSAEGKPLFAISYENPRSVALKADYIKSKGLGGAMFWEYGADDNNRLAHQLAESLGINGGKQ

Row | SMILES | Tm Transition-I (SpChiD mutant E153A) [°C] | Tm Transition-II (SpChiD mutant E153A) [°C] | n (binding stoichiometry) (SpChiD-E153A [1]; 13 °C) | ΔH° (SpChiD-E153A [1]; 13 °C) [kcal/mol] | ΔS° (SpChiD-E153A [1]; 13 °C) [cal.mol^−1.deg^−1] | −TΔS (SpChiD-E153A [1]; 13 °C) [kcal/mol] | −ΔG° (SpChiD-E153A [1]; 13 °C) [kcal/mol] | Kd (BcChiA-E61A) [µM] | Kd (SmChiB-E144Q) [µM] | binding affinity to E153A relative to the same ligand on SmChiB (SpChiD-E153A [2]) | Kd (OfChtI-E148Q; read-out: Kd to OfChtI-E148Q) [µM] | further results
1 | CC(=O)N[C@H]1[C@H](O[C@H]2[C@H](O)[C@@H](NC(C)=O)C(O)O[C@@H]2CO)O[C@H](CO)[C@@H](O)[C@@H]1O (some centres unmarked) [DP2] | 48.78 ± 0.03 | 53.16 ± 0.096 | 3.04 and 3.04 ± 0.307 | -0.1506 ± 0.0261 | 20.6 | 5.89 | 6.04 |  |  |  |  | binding affinity of DP2 to SpChiD relative to DP5 binding to SmChiB (SpChiD-E153A [2]; compared with DP5 on SmChiB (Kd = 0.67 μM)): ~3 times
2 | CC(=O)N[C@H]1[C@H](O[C@H]2[C@H](O)[C@@H](NC(C)=O)C(O)O[C@@H]2CO)O[C@H](CO)[C@@H](O[C@@H]2O[C@H](CO)[C@@H](O)[C@H](O)[C@H]2NC(C)=O)[C@@H]1O (some centres unmarked) [DP3, (GlcNAc)3, N,N',N''-triacetylchitotriose] |  |  |  |  |  |  |  | 230 ± 20 | 327 ± 22 |  |  | 
3 | CC(=O)N[C@H]1[C@H](O[C@H]2[C@H](O)[C@@H](NC(C)=O)C(O)O[C@@H]2CO)O[C@H](CO)[C@@H](O[C@@H]2O[C@H](CO)[C@@H](O)[C@H](O)[C@H]2NC(C)=O)[C@@H]1O (some centres unmarked) [DP3] | 50.20 ± 0.47 | 54.30 ± 0.043 | 0.84 and 0.839 ± 0.0641 | -1.837 ± 0.186 | 14.9 | 4.26 | 6.1 |  |  | 1,515 fold |  | Kd (OfChtI-E148Q; read-out: Kd1 to OfChtI-E148Q): 76.9 µM; Kd (OfChtI-E148Q; read-out: Kd2 to OfChtI-E148Q): 284 µM
4 | CC(=O)N[C@H]1[C@H](O[C@H]2[C@H](O)[C@@H](NC(C)=O)C(O)O[C@@H]2CO)O[C@H](CO)[C@@H](O[C@@H]2O[C@H](CO)[C@@H](O[C@@H]3O[C@H](CO)[C@@H](O)[C@H](O)[C@H]3NC(C)=O)[C@H](O)[C@H]2NC(C)=O)[C@@H]1O (some centres unmarked) [DP4, (GlcNAc)4, tetra-N-acetylchitotetraose] |  |  |  |  |  |  |  | 16 ± 1 | 2.7 ± 0.19 |  |  | 
5 | CC(=O)N[C@H]1[C@H](O[C@H]2[C@H](O)[C@@H](NC(C)=O)C(O)O[C@@H]2CO)O[C@H](CO)[C@@H](O[C@@H]2O[C@H](CO)[C@@H](O[C@@H]3O[C@H](CO)[C@@H](O)[C@H](O)[C@H]3NC(C)=O)[C@H](O)[C@H]2NC(C)=O)[C@@H]1O (some centres unmarked) [DP4] | 48.88 ± 0.52 | 54.10 ± 0.032 | 1.69 and 1.69 ± 0.071 | 1.148 ± 0.0675 | 27 | 7.72 | 6.6 |  |  |  | 11.3 ± 1.5 | 
6 | CC(=O)N[C@H]1[C@H](O[C@H]2[C@H](O)[C@@H](NC(C)=O)[C@H](O[C@H]3[C@H](O)[C@@H](NC(C)=O)C(O)O[C@@H]3CO)O[C@@H]2CO)O[C@H](CO)[C@@H](O[C@@H]2O[C@H](CO)[C@@H](O[C@@H]3O[C@H](CO)[C@@H](O)[C@H](O)[C@H]3NC(C)=O)[C@H](O)[C@H]2NC(C)=O)[C@@H]1O (some centres unmarked) [DP5, (GlcNAc)5, penta-N-acetylchitopentaose] |  |  |  |  |  |  |  | 1.8 ± 0.3 | 0.67 ± 0.2 |  |  | 
7 | CC(=O)N[C@H]1[C@H](O[C@H]2[C@H](O)[C@@H](NC(C)=O)[C@H](O[C@H]3[C@H](O)[C@@H](NC(C)=O)C(O)O[C@@H]3CO)O[C@@H]2CO)O[C@H](CO)[C@@H](O[C@@H]2O[C@H](CO)[C@@H](O[C@@H]3O[C@H](CO)[C@@H](O)[C@H](O)[C@H]3NC(C)=O)[C@H](O)[C@H]2NC(C)=O)[C@@H]1O (some centres unmarked) [DP5] | 56.09 ± 0.30 | 59.30 ± 0.063 |  |  |  |  |  |  |  | 52 fold | 2 ± 0.2 | increment of Tm1 over E153A alone (SpChiD mutant E153A): 10.7 °C; increment of Tm2 over E153A alone (SpChiD mutant E153A): 11.2 °C; n (binding stoichiometry) (SpChiD-E153A [1]; 25 °C): 1.09 and 1.09 ± 0.00966; ΔH° (SpChiD-E153A [1]; 25 °C): 3.530 ± 0.0468 kcal/mol; ΔS° (SpChiD-E153A [1]; 25 °C): 38.7 cal.mol^−1.deg^−1; −TΔS (SpChiD-E153A [1]; 25 °C): 11.53 kcal/mol; −ΔG° (SpChiD-E153A [1]; 25 °C): 8 kcal/mol
8 | CC(=O)N[C@H]1[C@H](O[C@H]2[C@H](O)[C@@H](NC(C)=O)[C@H](O[C@H]3[C@H](O)[C@@H](NC(C)=O)C(O)O[C@@H]3CO)O[C@@H]2CO)O[C@H](CO)[C@@H](O[C@@H]2O[C@H](CO)[C@@H](O[C@@H]3O[C@H](CO)[C@@H](O[C@@H]4O[C@H](CO)[C@@H](O)[C@H](O)[C@H]4NC(C)=O)[C@H](O)[C@H]3NC(C)=O)[C@H](O)[C@H]2NC(C)=O)[C@@H]1O (some centres unmarked) [DP6, (GlcNAc)6, hexa-N-acetylchitohexaose (chitohexaose)] |  |  |  |  |  |  |  | 0.77 ± 0.06 | 0.13 ± 0.09 |  |  | 
9 | CC(=O)N[C@H]1[C@H](O[C@H]2[C@H](O)[C@@H](NC(C)=O)[C@H](O[C@H]3[C@H](O)[C@@H](NC(C)=O)C(O)O[C@@H]3CO)O[C@@H]2CO)O[C@H](CO)[C@@H](O[C@@H]2O[C@H](CO)[C@@H](O[C@@H]3O[C@H](CO)[C@@H](O[C@@H]4O[C@H](CO)[C@@H](O)[C@H](O)[C@H]4NC(C)=O)[C@H](O)[C@H]3NC(C)=O)[C@H](O)[C@H]2NC(C)=O)[C@@H]1O (some centres unmarked) [DP6, chitohexaose] | 58.15 ± 0.19 | 60.49 ± 0.055 |  |  |  |  |  |  |  | 26 fold | 0.48 ± 0.09 | increment of Tm1 over E153A alone (SpChiD mutant E153A): 12.8 °C; increment of Tm2 over E153A alone (SpChiD mutant E153A): 12.4 °C; n (binding stoichiometry) (SpChiD-E153A [1]; 25 °C): 1.58 and 1.58 ± 0.00962; ΔH° (SpChiD-E153A [1]; 25 °C): 2.281 ± 0.0249 kcal/mol; ΔS° (SpChiD-E153A [1]; 25 °C): 36.3 cal.mol^−1.deg^−1; −TΔS (SpChiD-E153A [1]; 25 °C): 10.81 kcal/mol; −ΔG° (SpChiD-E153A [1]; 25 °C): 8.53 kcal/mol
